Consider eleven molecules from patent publication US11530229B2, “Cyano cyclobutyl compounds for CBL-B inhibition and uses thereof” (Nurix Therapeutics, Inc., priority 2019, dated 2022).

Structures are written as SMILES. Read-outs that look alike come from different tables or passages of the source. Where only a bound is given, the exact number is not on record here.

Test [1] addresses Cbl-b (Homo sapiens (Human), UniProt Q13191). The test can be described thus: Cbl-b displacement assay (Cbl-b inhibition assay), Biological Example 1. It is filed as binding. Put shortly: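 Avitag-biotinylated human Cbl-b (residues 36–427) at 0.5 nM ("High") or 0.125 nM ("Low") pre-incubated 1 h with compound (1% DMSO) in HEPES pH 7.5/NaCl/Triton/BSA/TCEP, RT. Then 1 h with 150 nM BODIPY FL inhibitor probe (~EC40) plus 2 nM streptavidin-Tb. TR-FRET read at 520/620 nm for probe displacement.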

In test [2] the test system is primary human total T-cells. The test can be described thus: T-cell activation, IL-2 secretion, Biological Example 2. Particulars: 48 hours, fold change over baseline; for fold induction at 0.3 µM: 0.3 μM inhibitor; for fold induction at 1 µM: 1 μM inhibitor; for fold induction at 3 µM: 3 μM inhibitor. It is filed as cell-based.
The test system of test [3] is primary human total T-cells. The test can be described thus: T-cell activation, CD25 surface staining, Biological Example 2. The test is classed as cell-based. Particulars: 48 hours, fold change over baseline; for fold induction at 0.3 µM: 0.3 μM inhibitor; for fold induction at 1 µM: 1 μM inhibitor; for fold induction at 3 µM: 3 μM inhibitor.
[4] abbreviates: 0.125 nM Cbl-b final concentration (Low), read-out: Cbl-b activity IC50 (Low).
Where [5] appears, read: anti-CD3 and anti-CD28 co-stimulation.
The mark [6] stands for this setting: anti-CD3 and anti-CD28 co-stimulation, read-out: IL-2 secretion CD3/CD28 1 μM.
Setting [7] is: anti-CD3 stimulation alone, read-out: IL-2 secretion CD3 1 μM.
The mark [8] stands for this setting: anti-CD3 and anti-CD28 co-stimulation, read-out: CD25 staining CD3/CD28 1 μM.
Setting [9] is: anti-CD3 stimulation alone, read-out: CD25 staining CD3 1 μM.
The mark [10] stands for this setting: read-out: IC50 values in the Cbl-b inhibition assay of Biological Example 1.

Cbl-b, sequence (Q13191 36-427): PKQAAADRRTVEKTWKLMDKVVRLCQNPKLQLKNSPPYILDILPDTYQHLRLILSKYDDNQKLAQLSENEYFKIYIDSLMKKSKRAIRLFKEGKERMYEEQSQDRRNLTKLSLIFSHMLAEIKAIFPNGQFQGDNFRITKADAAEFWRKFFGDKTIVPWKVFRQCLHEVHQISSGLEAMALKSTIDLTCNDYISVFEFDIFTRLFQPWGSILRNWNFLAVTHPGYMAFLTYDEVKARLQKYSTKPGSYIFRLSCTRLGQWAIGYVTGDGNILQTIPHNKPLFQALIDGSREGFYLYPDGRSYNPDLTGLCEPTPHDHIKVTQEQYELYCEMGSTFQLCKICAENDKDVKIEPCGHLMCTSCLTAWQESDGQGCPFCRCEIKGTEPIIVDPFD

As for `C[C@@H]1C[C@H](C)CN(Cc2cc(C(=O)Nc3cccc([C@]4(Cc5nncn5C)C[C@@H](C#N)C4)c3)nc(C3CC3)c2)C1` [Compound 54], in test [1] (setting [4]), the IC50 was less than 1 nM. Moreover, the fold induction at 0.3 µM was greater than 20 in test [2] (setting [5]) and 1.24 to 1.39 in test [3] (setting [5]). The fold induction at 1 µM in test [2] (setting [6]) is greater than 20; in test [2] (setting [7]), greater than 0.85; in test [3] (setting [8]), 1.24 to 1.39; in test [3] (setting [9]) it was no more than 1. The figures for the fold induction at 3 µM in test [2] (anti-CD3 stimulation alone) and in test [3] (anti-CD3 stimulation alone) were greater than 0.85 and no more than 1, respectively.
For the molecule `C[C@H]1CCCN(Cc2cc(C(=O)Nc3cccc([C@]4(Cc5nncn5C)C[C@@H](C#N)C4)c3)nc(C3CC3)c2)C1` [Compound 55, N-(3-((1r,3S)-3-cyano-1-((4-methyl-4H-1,2,4-triazol-3-yl)methyl)cyclobutyl)phenyl)-6-cyclopropyl-4-(((S)-3-methylpiperidin-1-yl)methyl)picolinamide], in test [1] (setting [4]), the IC50 was less than 1 nM. Besides, the fold induction at 0.3 µM is greater than 20 in test [2] (setting [5]) and 1.24 to 1.39 in test [3] (setting [5]). Further, the fold induction at 1 µM in test [2] (setting [6]) is greater than 20; in test [2] (setting [7]), greater than 0.85; in test [3] (setting [8]), 1.24 to 1.39; in test [3] (setting [9]), no more than 1. Besides, the values for the fold induction at 3 µM in test [2] (anti-CD3 stimulation alone) and in test [3] (anti-CD3 stimulation alone) were greater than 0.85 and no more than 1, respectively.
In the case of `Cn1cnnc1C[C@]1(c2cccc(N3Cc4c(cc(CN5CCC6CCC(C5)O6)cc4C(F)(F)F)C3=O)c2)C[C@H](C#N)C1` (stereo partly drawn) [Compound 37, (1r,3r)-3-(3-(6-((9-oxa-3-azabicyclo[4.2.1]nonan-3-yl)methyl)-1-oxo-4-(trifluoromethyl)isoindolin-2-yl)phenyl)-3-((4-methyl-4H-1,2,4-triazol-3-yl)methyl)cyclobutane-1-carbonitrile], in test [1] (setting [4]), the 50% inhibitory concentration (IC50) fell in the range of 2 to 5 nM. The fold induction at 0.3 µM in test [2] (setting [5]) was no more than 15; in test [3] (setting [5]) it was 1.24 to 1.39. Moreover, the fold induction at 1 µM is 15 to 20 in test [2] (setting [6]), less than 0.4 in test [2] (setting [7]), 1.24 to 1.39 in test [3] (setting [8]) and 1 to 1.15 in test [3] (setting [9]). For the same molecule, the fold induction at 3 µM in test [2] (anti-CD3 stimulation alone) is 0.4 to 0.85; in test [3] (anti-CD3 stimulation alone), no more than 1.
With `Cc1cc(C(=O)Nc2cccc([C@]3(Cc4nncn4C)C[C@H](C#N)C3)c2)nc(C2CC2)n1` [Compound 2, N-(3-((1s,3s)-3-cyano-1-((4-methyl-4H-1,2,4-triazol-3-yl)methyl)cyclobutyl)phenyl)-2-cyclopropyl-6-methylpyrimidine-4-carboxamide], the IC50 in test [1] (0.5 nM Cbl-b final concentration (High), read-out: Cbl-b activity IC50 (High)) fell in the range of 2 to 5 nM; in test [1] (setting [10]), 2 to 5 nM. Further, the fold induction at 0.3 µM in test [2] (setting [5]) was no more than 15; in test [3] (setting [5]), no more than 1.24. Also, the fold induction at 1 µM is no more than 15 in test [2] (setting [6]), less than 0.4 in test [2] (setting [7]), no more than 1.24 in test [3] (setting [8]) and 1 to 1.15 in test [3] (setting [9]). Besides, the fold induction at 3 µM is less than 0.4 in test [2] (anti-CD3 stimulation alone) and 1 to 1.15 in test [3] (anti-CD3 stimulation alone).
As for `Cn1cnnc1C[C@]1(c2cccc(N3Cc4c(cc(CN5CCCC(F)(F)CC5)cc4C(F)(F)F)C3=O)c2)C[C@H](C#N)C1` [Compound 17, (1r,3r)-3-(3-(6-((4,4-difluoroazepan-1-yl)methyl)-1-oxo-4-(trifluoromethyl)isoindolin-2-yl)phenyl)-3-((4-methyl-4H-1,2,4-triazol-3-yl)methyl)cyclobutane-1-carbonitrile], the IC50 in test [1] (setting [4]) and in test [1] (setting [10]) was 1 to 2 nM each time. In addition, the fold induction at 0.3 µM in test [2] (setting [5]) lay within 15 to 20; in test [3] (setting [5]), 1.24 to 1.39. For the same molecule, the fold induction at 1 µM is greater than 20 in test [2] (setting [6]), 0.4 to 0.85 in test [2] (setting [7]), 1.24 to 1.39 in test [3] (setting [8]) and 1 to 1.15 in test [3] (setting [9]). Moreover, the fold induction at 3 µM in test [2] (anti-CD3 stimulation alone) is 0.4 to 0.85; in test [3] (anti-CD3 stimulation alone), no more than 1.
For the molecule `C[C@H]1CCCN(Cc2cc3c(c(C4CC4)n2)CN(c2cccc([C@]4(Cc5nncn5C)C[C@@H](C#N)C4)c2)C3=O)C1` [Compound 40, (1r,3r)-3-(3-(4-cyclopropyl-6-(((S)-3-methylpiperidin-1-yl)methyl)-1-oxo-1,3-dihydro-2H-pyrrolo[3,4-c]pyridin-2-yl)phenyl)-3-((4-methyl-4H-1,2,4-triazol-3-yl)methyl)cyclobutane-1-carbonitrile], the IC50 in test [1] (setting [4]) and in test [1] (setting [10]) was 1 to 2 nM throughout. The fold induction at 0.3 µM was no more than 15 in test [2] (setting [5]) and 1.24 to 1.39 in test [3] (setting [5]). Further, the fold induction at 1 µM was in the range of 15 to 20 in test [2] (setting [6]), 0.4 to 0.85 in test [2] (setting [7]), 1.24 to 1.39 in test [3] (setting [8]) and 1 to 1.15 in test [3] (setting [9]). Also, the results for the fold induction at 3 µM in test [2] (anti-CD3 stimulation alone) and in test [3] (anti-CD3 stimulation alone) were greater than 0.85 and no more than 1, respectively.
As for `Cn1cnnc1C[C@]1(c2cccc(N3Cc4c(cc(CN5CCc6ncccc6C5)cc4C(F)(F)F)C3=O)c2)C[C@H](C#N)C1` [Compound 28, (1r,3r)-3-(3-(6-((7,8-dihydro-1,6-naphthyridin-6(5H)-yl)methyl)-1-oxo-4-(trifluoromethyl)isoindolin-2-yl)phenyl)-3-((4-methyl-4H-1,2,4-triazol-3-yl)methyl)cyclobutane-1-carbonitrile], the IC50 in test [1] (setting [4]) was in the range of 2 to 5 nM. Also, the values for the fold induction at 0.3 µM in test [2] (setting [5]) and in test [3] (setting [5]) were no more than 15 and no more than 1.24, respectively. The fold induction at 1 µM is no more than 15 in test [2] (setting [6]), less than 0.4 in test [2] (setting [7]), no more than 1.24 in test [3] (setting [8]) and no more than 1 in test [3] (setting [9]). The fold induction at 3 µM in test [2] (anti-CD3 stimulation alone) was less than 0.4; in test [3] (anti-CD3 stimulation alone) it was no more than 1.
On to `Cn1cnnc1C[C@]1(c2cccc(N3Cc4c(cc(CN5CCO[C@H](C(F)(F)F)C5)cc4C(F)(F)F)C3=O)c2)C[C@H](C#N)C1` [Compound 16, (1S,3r)-3-((4-methyl-4H-1,2,4-triazol-3-yl)methyl)-3-(3-(1-oxo-4-(trifluoromethyl)-6-(((S)-2-(trifluoromethyl)morpholino)methyl)isoindolin-2-yl)phenyl)cyclobutane-1-carbonitrile], for which the concentration for half-maximal inhibition (IC50) in test [1] (setting [4]) and in test [1] (setting [10]) was 1 to 2 nM each time. Further, the fold induction at 0.3 µM in test [2] (setting [5]) was no more than 15; in test [3] (setting [5]), 1.24 to 1.39. In addition, the fold induction at 1 µM in test [2] (setting [6]) was 15 to 20; in test [2] (setting [7]) it was 0.4 to 0.85; in test [3] (setting [8]) it was 1.24 to 1.39; in test [3] (setting [9]), 1 to 1.15. Also, the fold induction at 3 µM in test [2] (anti-CD3 stimulation alone) is greater than 0.85; in test [3] (anti-CD3 stimulation alone), no more than 1.
`CC1COCCN(Cc2cc3c(c(C(F)(F)F)c2)CN(c2cccc([C@]4(Cc5nncn5C)C[C@@H](C#N)C4)c2)C3=O)C1` (stereo partly drawn) [Compound 35, (1r,3r)-3-(3-(6-((6-methyl-1,4-oxazepan-4-yl)methyl)-1-oxo-4-(trifluoromethyl)isoindolin-2-yl)phenyl)-3-((4-methyl-4H-1,2,4-triazol-3-yl)methyl)cyclobutane-1-carbonitrile]: the IC50 in test [1] (setting [4]) was 2 to 5 nM. Also, the fold induction at 0.3 µM lay within 15 to 20 in test [2] (setting [5]) and 1.24 to 1.39 in test [3] (setting [5]). Also, the fold induction at 1 µM in test [2] (setting [6]) is 15 to 20; in test [2] (setting [7]), 0.4 to 0.85; in test [3] (setting [8]), 1.24 to 1.39; in test [3] (setting [9]), 1 to 1.15. Further, the values for the fold induction at 3 µM in test [2] (anti-CD3 stimulation alone) and in test [3] (anti-CD3 stimulation alone) were 0.4 to 0.85 and 1 to 1.15, respectively.
`Cn1cnnc1C[C@]1(c2cccc(N3Cc4c(cc(CN5CCCCC(F)(F)C5)cc4C(F)(F)F)C3=O)c2)C[C@H](C#N)C1` [Compound 50, (1r,3r)-3-(3-(6-((3,3-difluoroazepan-1-yl)methyl)-1-oxo-4-(trifluoromethyl)isoindolin-2-yl)phenyl)-3-((4-methyl-4H-1,2,4-triazol-3-yl)methyl)cyclobutane-1-carbonitrile]: the IC50 in test [1] (setting [4]) and in test [1] (setting [10]) was 2 to 5 nM each time. The fold induction at 0.3 µM is greater than 20 in test [2] (setting [5]) and greater than 1.39 in test [3] (setting [5]). The fold induction at 1 µM in test [2] (setting [6]) was greater than 20; in test [2] (setting [7]), greater than 0.85; in test [3] (setting [8]) it was greater than 1.39; in test [3] (setting [9]) it was greater than 1.15. The fold induction at 3 µM in test [2] (anti-CD3 stimulation alone) is 0.4 to 0.85; in test [3] (anti-CD3 stimulation alone) it was greater than 1.15.
Consider `Cn1cnnc1C[C@]1(c2cccc(N3Cc4c(cc(CNC5CC6C(C5)C6(F)F)cc4C(F)(F)F)C3=O)c2)C[C@H](C#N)C1` (stereo partly drawn) [Compound 12, (1r,3r)-3-(3-(6-(((6,6-difluorobicyclo[3.1.0]hexan-3-yl)amino)methyl)-1-oxo-4-(trifluoromethyl)isoindolin-2-yl)phenyl)-3-((4-methyl-4H-1,2,4-triazol-3-yl)methyl)cyclobutane-1-carbonitrile], for which the half-maximal inhibitory concentration (IC50) in test [1] (setting [4]) and in test [1] (setting [10]) was less than 1 nM each time. For the same molecule, the values for the fold induction at 0.3 µM in test [2] (setting [5]) and in test [3] (setting [5]) were 15 to 20 and 1.24 to 1.39, respectively. In addition, the fold induction at 1 µM was 15 to 20 in test [2] (setting [6]), greater than 0.85 in test [2] (setting [7]), 1.24 to 1.39 in test [3] (setting [8]) and 1 to 1.15 in test [3] (setting [9]). In addition, the values for the fold induction at 3 µM in test [2] (anti-CD3 stimulation alone) and in test [3] (anti-CD3 stimulation alone) were 0.4 to 0.85 and 1 to 1.15, respectively.

By IC50 is commonly meant the concentration needed to halve the response being measured.
